Measurements as given in patent US8987324B2, “Use of simalikalactone E as an anticancer agent” (Institut de Recherche pour le Developpement, priority 2011, dated 2015).
Where two headings read alike, the source gives them in different places.

How the values were obtained:
A375 melanoma cells = test: XTT cell viability, A375 melanoma cells; assay type: cell-based; details: 48 hours; A375 carry B-raf V600E, MeWo do not
Protocol: (§1) B1-1. XTT Cell Viability Measurement
(§2) This test measures the activity of mitochondrial succinate dehydrogenase, which represents an index of cell viability. This enzyme converts XTT into orange formazan. On day 0, the K562-Ima-S (sensitive to Ima), K562-Ima-R (resistant to Ima), A375 or MeWo cells are seeded at 15 000 cells/well (100 μl) in 96-well microplates and stimulated with increasing concentrations of Simalikalactone E [50-500 nM]. After 24 or 48 hours, 50 μl of tetrazolium (XTT reagent) are added to each well and the optical density at 490 nm is read every 30 minutes for 2 to 4 hours. The values obtained, which are an index of mitochondrial metabolism, make it possible to evaluate the percentage of live cells. Each condition is systematically carried out in triplicate.
A375 and MeWo melanoma cells are then treated in the presence of increasing doses of Simalikalactone E. 48 hours later, the cells are subjected to an XTT test. The A375 cells carry the V600E mutation on the B-raf oncogene, which is reflected by constitutive activation of the Erk pathway.

certain cell lines = details: cited from earlier work
[1] = mice, orally for 4 days; cited from earlier work
[2] = system: CD34+ Bcr-Abl+ primary cells from patients suffering from CML; test: XTT viability of CD34+ human primary cells from CML patients; assay type: cell-based; details: 48 hours
Protocol: The primary cells from patients suffering from CML (purified CD34+Bcr-Abl+) are incubated in the presence of variable concentrations of Simalikalactone E for 48 hours, and then the cell viability is quantified using an XTT colorimetric test. Imatinib (Ima) is used as a positive control for the induction of death of the Bcr-Abl+ cells.

[3] = system: gametocyte forms of Plasmodium falciparum; details: compared with primaquine, reference molecule; cited from earlier work
[4] = system: Erk1/2 kinase (MAP kinase) phosphorylation; test: Western blot of death markers and Erk1/2 phosphorylation, K562-Ima-R; assay type: cell-based; details: 250 nM
Protocol: (§3) The characterization of the type of cell death involved in the effect of Simalikalactone E is carried out according to the following protocols: • apoptosis (type I cell death) is studied by assaying caspase activity, caspases being cysteine proteases involved in this type of process. The apoptosis is also quantified by annexin V/propidium iodide co-labeling, the cells which externalize the annexin V at the level of their […] being cells undergoing apoptosis, • autophagic death (type II cell death) is analyzed by assaying cathepsin activity, these proteases being, for their part, involved in the degradation of the intracellular material included in vesicles (autophagolysosomes). […] B1-4. Xenografts of K562-Luc Cells on Nude Mice
(§4) The K562-Ima-S (A) and K562-Ima-R (B) cells are treated for variable periods of time with 250 nM of Simalikalactone E. The cells are then lyzed and protein extracts are prepared for western blot analysis. Finally, the membranes are incubated in the presence of the various anti-PARP, LC3b, p-Erk1/2, Erk1/2 and HSP60 antibodies.

[5] = system: K562-Ima-S leukemia cell line; test: XTT cell viability, K562-Ima-S; assay type: cell-based; details: 48 hours
Protocol: as §1, §2
(§5) The K562-Ima-S and K562-Ima-R tumor lines are incubated for 48 hours with increasing concentrations of Simalikalactone E (0, 100 or 250 nM) in the absence or in the presence of a maximally effective concentration (50 μM) of z-Vad-fmk (Zvad), which is a pan-caspase inhibitor (apoptosis inhibitor).

[6] = system: Erk1/2 kinase (MAP kinase) phosphorylation; test: Western blot of death markers and Erk1/2 phosphorylation, K562-Ima-S; assay type: cell-based
Protocol: as §3, §4
K562-Ima-S cells are then treated for 1 hour in the presence of 250 nM of Simalikalactone E or 10 μM of U0126 (specific inhibitor of MEK1/2, the kinase responsible for Erk1/2 (MAP kinase) phosphorylation and activation). The cells are then lyzed and protein extracts are prepared for western blot analysis. The membranes are then incubated in the presence of the p-Erk1/2, Erk1/2 and HSP60 antibodies.

[7] = system: K562-Ima-R leukemia cell line; test: XTT cell viability, K562-Ima-R; assay type: cell-based; details: 48 hours
Protocol: as §1, §2, §5

[8] = system: Rafl-dependent Erk1/2 (MAP kinase) phosphorylation; test: Rafl-dependent Erk1/2 phosphorylation in inducible HEK-Rafl-ER cells; assay type: cell-based; details: 30 minutes preincubation, then 1 μM tamoxifen for 1 hour
Protocol: In the experiment presented in FIG. 6B, inducible HEK-Rafl-ER cells were used. These cells express the Raf kinase under the control of the estrogen receptor. The expression of Raf can therefore be induced in the presence of tamoxifen. The cells are preincubated for 30 minutes with increasing doses of Simalikalactone E or U0126, and then treated with 1 μM of tamoxifen for 1 hour. The cells are then lyzed and protein extracts are prepared for western blot analysis. The membranes are finally incubated in the presence of the various antibodies (p-Erk1/2, Erk1/2 and HSP60). Simalikalactone E and U0126 inhibit Rafl-dependent Erk1/2 (MAP kinase) phosphorylation.

Vero mammalian cells = details: cited from earlier work
[9] = system: Plasmodium vinckei petteri; details: murine model of malaria, cited from earlier work
K562 cells = test: Clonogenic capacity of K562 cells; assay type: cell-based; details: SkE 100, 250 or 500 nM versus 1 μM imatinib, 7 to 10 days
Protocol: B1-2. Evaluation of the Clonogenic Capacity of K562 Cells
Aliquots of methylcellulose (40% Methocult®, 1% L-glutamine, 5% FCS (fetal calf serum) and 54% IMDM (Iscove's modified Dulbecco's medium)) are heated for 1 h at 37° C. 400 μl of RPMI (Roswell Park Memorial Institute medium), 5% of FCS containing the treatment (1 μM imatinib, 100, 250 or 500 nM SkE), and then 10^3 K562 cells in 200 μl of medium are added to each aliquot. For each condition, 500 μl of the suspension obtained are then deposited in 3 wells of a 24-well plate. A nontreated condition serves as a control. The plates are incubated at 37° C. for 7 to 10 days. 75 μl of MTT tetrazolium salt (Roche) (2.5 mg/ml) are added to each well. The MTT tetrazolium salt is cleaved into purple-colored formazan crystals by the metabolically active cells. After incubation for 4 h at 37° C., the wells are photographed and the clones are quantified using the Image J program.

Question: With `CCC(C)C(=O)O[C@@H]1[C@H]2C(C)=CC(=O)[C@@H](O)[C@]2(C)[C@H]2[C@@H](O)[C@H](O)[C@@]3(C)OC[C@@]24[C@@H]1OC(=O)[C@H](OC(=O)C(C)CC)[C@@H]34` (some centres unmarked) [Simalikalactone E] as the compound, how does the “sensitivity in XTT test compared with MeWo cells” value (A375 melanoma cells) read?
Answer: The value was “much more sensitive”.

Question: What about the cytotoxic action (certain cell lines) of the same compound?
Answer: Its cytotoxic action is “moderate”.

Question: What about the dose tolerated [1] of the same compound?
Answer: Its dose tolerated is 1 mg/kg/day.

Question: What about the “inhibition of cell metabolism compared with imatinib” value ([2]; 500 nM) of the same compound?
Answer: The value was “as effective as imatinib”.

Question: And the EC50 ([2]; Homo sapiens, read-out: dose giving the half-maximum effect)?
Answer: The EC50 was 0.1 µM.

Question: What about the “concentration reducing the gametocyte level by 50%, relative to primaquine” value [3] of the same compound?
Answer: Its value is “seven times lower”.

Question: What about the “apoptosis marker (PARP cleavage)” value [4] of the same compound?
Answer: The value was “no cleavage of PARP”.

Question: What about the “autophagy marker (LC3 conversion)” value [4] of the same compound?
Answer: The value was “no modification of LC3”.

Question: And the “Erk1/2 kinase (MAP kinase) phosphorylation” value ([4]; variable periods of time, imatinib-resistant cells)?
Answer: The value was “inhibits”.

Question: And the “effect on viability in the presence of caspase inhibitor z-Vad-fmk” value ([5]; 50 μM z-Vad-fmk)?
Answer: The value was “not modified”.

Question: What about the “sensitivity (growth and viability)” value ([5]; 100 or 250 nM) of the same compound?
Answer: The value was “sensitive”.

Question: What about the “apoptosis marker (PARP cleavage)” value ([6]; 250 nM) of the same compound?
Answer: The value was “no cleavage of PARP”.

Question: And the “autophagy marker (LC3 conversion)” value ([6]; 250 nM)?
Answer: The value was “no modification of LC3”.

Question: What about the “concentration of U0126 relative to Simalikalactone E for equal effect (times higher)” value ([6]; 250 nM SkE versus 10 μM U0126) of the same compound?
Answer: Its value is 40.

Question: And the “inhibition of Erk1/2 phosphorylation compared with U0126” value ([6]; 250 nM SkE versus 10 μM U0126, 1 hour)?
Answer: Its value is “as effective as U0126”.

Question: And the “Erk1/2 kinase (MAP kinase) phosphorylation” value ([6]; 250 nM, variable periods of time, imatinib-sensitive cells)?
Answer: Its value is “inhibits”.

Question: And the “effect on viability in the presence of caspase inhibitor z-Vad-fmk” value ([7]; 50 μM z-Vad-fmk)?
Answer: The value was “not modified”.

Question: What about the “sensitivity (growth and viability)” value ([7]; 100 or 250 nM) of the same compound?
Answer: The value was “sensitive”.

Question: What about the “Rafl-dependent Erk1/2 (MAP kinase) phosphorylation” value [8] of the same compound?
Answer: The value was “inhibit”.

Question: And the selectivity index (Vero mammalian cells; Vero cells versus Plasmodium falciparum)?
Answer: Its selectivity index is “greater than 100”.

Question: What about the IC50 (Vero mammalian cells; read-out: dose inhibiting 50% of the growth of Vero mammalian cells) of the same compound?
Answer: Its IC50 is 6.57 µM.

Question: And the “dose inhibiting 50% of the growth of Plasmodium vinckei petteri” value ([9]; intraperitoneally)?
Answer: Its value is 0.5 mg/kg/day.

Question: What about the “dose inhibiting 50% of the growth of Plasmodium vinckei petteri” value ([9]; orally) of the same compound?
Answer: The value was 1 mg/kg/day.

Question: And the “inhibition of clonogenic capacity” value (K562 cells)?
Answer: The value was “as effectively as imatinib”.

Question: For `N#CC(=C(/N)Sc1ccccc1N)/C(C#N)=C(\N)Sc1ccccc1N` [U0126, reference compound], which “Rafl-dependent Erk1/2 (MAP kinase) phosphorylation” value [8] is on record?
Answer: Its value is “inhibit”.

Question: With `CCN(CC)CCCC(C)Nc1ccnc2cc(Cl)ccc12` (centres unmarked) [chloroquine, reference compound] as the compound, how does the “dose inhibiting 50% of the growth of Plasmodium vinckei petteri” value ([9]; intraperitoneally) read?
Answer: The value was 3 mg/kg/day.
